Like-named read-outs stand apart in the source and are kept apart here.
Experiments:
PPARγ = PPARγ reporter assay in transfected HEK293 cells; type: cell-based; conditions: transfected cells in culture
Method: Human embryonic kidney cells (HEK293 cells) were purchased from American Type Culture Collection (ATCC) and maintained in Dulbecco's modified Eagle's medium (DMEM) with GIBCO™ GLUTAMAX™ (Invitrogen Corp., Carlsbad, Calif., United States of America) and 10% heat-inactivated FBS (Atlas Biological, Fort Collins, Colo., United States of America) or 10% charcoal-stripped FBS (HyClone, Logan, Utah, United States of America) in a 5% CO2 constant humidity 37° C. incubator. 9×10^5 HEK293 cells were plated in DMEM supplemented with 10% charcoal-stripped FBS. 18-24 hours after plating, cells were transfected with a control Renilla luciferase expressing plasmid (0.2 μg pCMV-renilla luciferase from Promega Corp., Madison, Wis., United States of America), 0.4 μg PPARγ-GAL4, and 0.4 μg UAS-tk-luc using a lipid ratio of 8 μL Effectene Transfection Reagent (Qiagen Inc., Valencia, Calif., United States of America) per 1 μg DNA in 3 mL of DMEM+10% charcoal-stripped FBS. Cells remained in the transfection mixture overnight until the transfection media was replaced with DMEM+10% charcoal-stripped serum containing ligands of interest or vehicle (0.1% DMSO) […]

cultured cancer cells = experiment: Induction of apoptosis of cultured cancer cells; type: cell-based, human
Method: RKO, HCT-116 (another human colorectal cancer cell line), and H1299 (a human non-small cell cancer line) cells that had been treated with test compounds for various times were washed twice with ice-cold PBS and lysed in a lysis buffer (BioVision) on ice for 10 minutes, followed by centrifugation at 15,000×g for 10 minutes. Caspase-3 activity, which is a measure if the initiation of apoptotic cell death, was determined in the supernatant by a colorimeric assay kit (BioVision Inc., Palo Alto, Calif., United States of America) using the p-nitroanilide-labeled peptide, DEVD-pNA, as substrate. Caspase-3 activity was monitored by the release of p-nitroanilide from the substrate at 405 nm. The fold increase in caspase-3 activity is shown in FIG. 9, and was calculated by comparing the absorbance of p-nitroanilide from vehicle treated controls and those treated with sulindac sulfide and its analogs. […]

C57/BL6 mice = experiment: Toxicity in vivo, daily injections; conditions: daily injections of a series of concentrations
HCT-116 cells = experiment: Cell viability assay (WST-1); type: cell-based; conditions: Homo sapiens
Method: (§1) RKO and HCT-116 cells (human colorectal cancer cell lines) were cultured in microtiter plates (tissue culture grade, 96-well flat) in a final volume of 100 μl culture medium containing 5-8×10^4 cells and the final concentrations of chemicals (1-500 μM). Cells were incubated in a humidified atmosphere for 8-24 hours. To the cultures, 10 μl of cell proliferation reagent, WST-1 (Roche Applied Science, Indianapolis, Ind., United States of America) was added, and reincubated for 1-2 hours. The absorbance of the samples was determined using a microtiter plate reader at a wavelength of 405-450 nm against background control. Reference wavelength was 620 nm. The tetrazolium salt, WST-1 (4-[3-(4-Iodophenyl)-2-(4-nitrophenyl)-2H-5-tetrazolio]-1,3-benzene disulfonate) was metabolized to formazan by the “succinate-tetrazolium reductase” system, which exists in mitochondria and is active only in viable cells. Thus, the formation of formazan (dark yellow color) is proportional to the viable cell numbers.
(§2) The generated data points were used to calculate ED50 values by creating a sigmoidal dose-response curve using non-linear regression. ED50 valued were calculated using the statistical analysis program PRISM® (GraphPad Software, Inc., San Diego, Calif., United States of America).

RKO cells = experiment: Cell viability assay (WST-1); type: cell-based; conditions: Homo sapiens
Method: as §1, §2

[1] = concentration that reduces cell viability by 50%, read-out: ED50 HCT-116
[2] = concentration that reduces cell viability by 50%, read-out: ED50 RKO

| SMILES | EC50 (HCT-116 cells; [1]) | EC50 (RKO cells; [2]) | further results |
| --- | --- | --- | --- |
| CSc1ccc(C=C2C=C(CC(=O)O)c3cc(F)ccc32)cc1 [eindenic acid sulfide, [6-Fluoro-3-(4-methylsulfanyl-benzylidene)-3H-inden-1-yl]-acetic acid] |  |  | ability to activate PPARγ-mediated transcription in transfected cells, compared with parent drug (PPARγ): considerably more active than sulindac sulfide; ability to induce apoptosis of cultured cancer cells, compared with parent drug (cultured cancer cells): considerably more active than sulindac sulfide |
| COc1ccc2c(c1)c(CC(=O)O)cn2C(=O)c1ccc(Cl)cc1 [2-Des-methylindomethacin, [1-(4-Chloro-benzoyl)-5-methoxy-1H-indol-3-yl]-acetic acid] |  |  | less toxic than indomethacin (C57/BL6 mice): at least 25 fold; ability to activate PPARγ-mediated transcription in transfected cells, compared with parent drug (PPARγ): as active or more active than the parent drug; ability to induce apoptosis of cultured cancer cells, compared with parent drug (cultured cancer cells): as active or more active than the parent drug |
| CSc1ccc(/C=C2\C=C(CC(=O)NCc3cccc(Br)c3)c3cc(F)ccc32)cc1 [Compound 23] | > 3 µM | > 3 µM |  |
| C[S+]([O-])c1ccc(/C=C2\C=C(CC(=O)NCc3ccccc3)c3cc(F)ccc32)cc1 (centres unmarked) [Compound 32] |  |  | EC50 (HCT-116 cells; second part of Table 9, read-out: ED50 HCT-116): 6 ± 1 µM; EC50 (RKO cells; second part of Table 9, read-out: ED50 RKO): 2.4 ± 0.2 µM |
| CSc1ccc(/C=C2\C=C(CC(=O)NCc3ccc(O)cc3)c3cc(F)ccc32)cc1 [Compound 15] | 1.2 ± 0.2 µM | 0.1 ± 0.04 µM |  |
| CSc1ccc(/C=C2/C(C)=C(CC(=O)O)c3cc(F)ccc32)cc1 [Sulindac sulfide, reference compound] | 109 ± 10 µM | 98.2 ± 1.4 µM |  |
| CSc1ccc(/C=C2\C=C(CC(=O)NCc3ccc(N)cc3)c3cc(F)ccc32)cc1 [Compound 12] | > 3 µM | 2.3 ± 0.03 µM |  |
| CSc1ccc(/C=C2\C=C(CC(=O)Nc3ccc(F)cc3Cl)c3cc(F)ccc32)cc1 [Compound 10] | > 3 µM | > 3 µM |  |
| CSc1ccc(/C=C2\C=C(CC(=O)NCc3ccccc3[N+](=O)[O-])c3cc(F)ccc32)cc1 [Compound 28] | > 3 µM | > 3 µM |  |
| CSc1ccc(/C=C2\C=C(CC(=O)NCc3ccncc3)c3cc(F)ccc32)cc1 [Compound 9] | > 3 µM | > 3 µM |  |
| CSc1ccc(/C=C2\C=C(CC(=O)NCc3ccc(Cl)cc3)c3cc(F)ccc32)cc1 [Compound 20] | 0.8 ± 0.1 µM | 0.63 ± 0.07 µM |  |
| [N-]=[N+]=NCc1ccc(/C=C2\C=C(CC(=O)NCc3ccc(C4(c5ccccc5)CO4)cc3)c3cc(F)ccc32)cc1 (centres unmarked) [Compound 29] | > 3 µM | > 3 µM |  |
| CSc1ccc(/C=C2\C=C(CC(=O)N[C@@H](C)c3ccccc3)c3cc(F)ccc32)cc1 [Compound 7] | > 3 µM | > 3 µM |  |
| COc1ccc2c(c1)c(CC(=O)O)c(C)n2C(=O)c1ccc(Cl)cc1 [Indomethacin, indomethacin, reference compound] | 449 ± 97.6 µM | 162 ± 11 µM |  |

Source: patent US8168656B2, “Indoleacetic acid and indenacetic acid derivatives as therapeutic agents with reduced gastrointestinal toxicity” (Vanderbilt University, priority 2009, dated 2012)
